Some test systems named below: ACHN; CCRF-CEM; DMS-114; EKVX; HCT-116; HCT-15; HL-60; IGROV-1; K562; KM12; NCI-H23; OVCAR-4; SF-295; SNB-75; SW-620; UO-31; HOP-62; DU-145; Hs-578T; MDA-N.
What all share (assay): growth of human tumour cells (NCI), 48 h

Molecules are shown by their SMILES.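 Assay format: 96-well plates, 48-hour exposure. Abbreviation: GI50, concentration required for 50% inhibition of growth.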 Calls of active or inactive are those of the source. No stated cut-off is given here; in the data, active = GI50 up to about 1.1 µM and inactive = higher. Where a SMILES comes first, the peptide text is derived from it. [ ]: non-standard residue; d: D form. The star is where a group is joined. Bn2Val = CC(C)[C@@H](C(=O)*)N(Cc1ccccc1)Cc1ccccc1; NH(4-F-benzyl) = Fc1ccc(CN*)cc1; NMeV = CN[C@H](C(=O)O)C(C)C; dNMeA = CN[C@H](C)C(=O)O Where only a bound is given, the exact number is not on record here.

Consider `Cc1cn(C2CC(n3cncn3)C(C(C)O)O2)c(=O)[nH]c1=O` (stereo not given), for which the GI50 in the test on ACHN was > 100 µM (inactive); in the test on CCRF-CEM, > 100 µM (inactive); in the test on DMS-114 it was > 100 µM (inactive); with EKVX it was > 100 µM (inactive); in the test on HCT-116, > 100 µM (inactive); in the test with HCT-15, > 100 µM. Further, the GI50 with HL-60, in the test with IGROV-1, in the test with K562, with KM12, with NCI-H23 and in the test with OVCAR-4 was > 100 µM (inactive) throughout. Also, the GI50 in the test on SF-295, with SNB-75, in the test with SW-620 and in the test on UO-31 was > 100 µM (inactive) in each case.

On to `COc1ccc(/C=C\c2cc(OC)c(OC(C)=O)c(OC)c2)cc1`, for which the GI50 in the test with ACHN is 27.9 µM (inactive); in the test on CCRF-CEM, 5.46 µM (inactive); with DMS-114, 4.78 µM (inactive); in the test with EKVX, 15.6 µM (inactive); in the test with HCT-116, 8.53 µM (inactive); in the test with HCT-15 it was 5.12 µM. Also, the GI50 with HOP-62 is 5.92 µM (inactive); with IGROV-1 it was 29.7 µM (inactive); in the test on K562, 2.03 µM (inactive); in the test on KM12, 5.06 µM (inactive); with NCI-H23, 13.3 µM (inactive); with OVCAR-4, 26.4 µM (inactive). Also, the GI50 with SNB-75 was 2.84 µM (inactive); in the test on SW-620, 11.1 µM (inactive); in the test on UO-31, 15.7 µM (inactive).

Regarding `O=C(O)CCSC(=O)Nc1cccc2ccccc12`, the GI50 in the test with ACHN was > 100 µM (inactive); in the test with CCRF-CEM it was > 100 µM (inactive); in the test on DMS-114, > 100 µM (inactive); in the test on EKVX, > 100 µM (inactive); in the test with HCT-116 it was > 100 µM (inactive); in the test on HCT-15, > 100 µM. In addition, the GI50 in the test on HOP-62, in the test with IGROV-1, in the test with K562, with KM12, with NCI-H23 and in the test with OVCAR-4 was > 100 µM (inactive) throughout. The GI50 with SF-295, in the test on SNB-75, in the test on SW-620 and with UO-31 was > 100 µM (inactive) in each case.

In the case of `CC(C)(C)NN=C1C(C)(C)C(=NNC(C)(C)C)C1(C)C`, the GI50 is > 100 µM (inactive) in the test on ACHN; > 100 µM (inactive) with DMS-114; > 100 µM (inactive) with HCT-116; > 100 µM in the test with HCT-15; > 100 µM (inactive) with HL-60; > 100 µM (inactive) in the test with HOP-62. For the same compound, the GI50 with IGROV-1, with K562, with KM12, in the test with NCI-H23, with OVCAR-4 and in the test on SF-295 was > 100 µM (inactive) each time. Further, the GI50 in the test on SNB-75, with SW-620 and in the test with UO-31 was > 100 µM (inactive) each time.

For `Nc1ccc(C(=O)N/C(=C\c2cccc([N+](=O)[O-])c2)c2nc3c4c(ccc3[nH]2)C(=O)c2ccccc2C4=O)cc1`, the GI50 was 0.853 µM (active) in the test on CCRF-CEM; 8.18 µM (inactive) in the test on DMS-114; 42.6 µM (inactive) in the test on EKVX; 22 µM (inactive) in the test on HCT-116; 70.5 µM with HCT-15; > 100 µM (inactive) in the test on HOP-62. Besides, the GI50 is 8.39 µM (inactive) with IGROV-1; 56 µM (inactive) in the test on K562; 10.8 µM (inactive) with NCI-H23; 15 µM (inactive) in the test on OVCAR-4; 14 µM (inactive) in the test with SF-295; 1.76 µM (inactive) in the test on SNB-75. For the same compound, the GI50 with SW-620 was 73.5 µM (inactive); in the test on UO-31 it was 1.86 µM (inactive).

`C=C(C)C1CCC2(C)CC1c1c(c(C)cc3c1[nH]c1ccccc13)O2` (stereo not given): the GI50 in the test on ACHN is > 25 µM (inactive); with CCRF-CEM, 24.3 µM (inactive); with DMS-114, > 25 µM (inactive); in the test on HCT-116, > 25 µM (inactive); in the test with HCT-15 it was > 25 µM; with HL-60, 11.9 µM (inactive). Further, the GI50 with HOP-62 is 19 µM (inactive); with IGROV-1 it was > 25 µM (inactive); with K562, 12 µM (inactive); in the test on KM12, > 25 µM (inactive); in the test with OVCAR-4 it was 11.7 µM (inactive); with SW-620 it was > 25 µM (inactive). Moreover, in the test with UO-31, the GI50 is 12.6 µM (inactive).

With `CC1=NN=C(C)C1/N=N/c1ccc2[nH]c(C)nc2c1`, the GI50 was 7.46 µM (inactive) in the test with ACHN; 32.3 µM (inactive) in the test with CCRF-CEM; 9.23 µM (inactive) in the test on DU-145; 18.7 µM (inactive) in the test on EKVX; 10.9 µM (inactive) in the test on HCT-116; 6.68 µM with HCT-15. The GI50 in the test with HL-60 is 10.8 µM (inactive); in the test with HOP-62, 26.4 µM (inactive); in the test on Hs-578T it was 5.36 µM (inactive); in the test on IGROV-1, 5.62 µM (inactive); in the test with K562, > 69.2 µM (inactive); with KM12, 35.4 µM (inactive). The GI50 was 19.8 µM (inactive) in the test with MDA-N; 37.3 µM (inactive) in the test with NCI-H23; 58.1 µM (inactive) in the test on OVCAR-4; 17.9 µM (inactive) in the test with SF-295; 22.9 µM (inactive) with SNB-75; 25.3 µM (inactive) in the test on SW-620. Further, in the test on UO-31, the GI50 was 19.2 µM (inactive).

Take `CCN(CC)Cc1nc(C2CCC([N+](=O)[O-])O2)no1` (stereo not given): the GI50 in the test with ACHN is 98.2 µM (inactive); in the test with CCRF-CEM, 31.9 µM (inactive); in the test with DU-145, 25.7 µM (inactive); with EKVX it was > 100 µM (inactive); in the test on HCT-116, 24.3 µM (inactive); in the test with HCT-15 it was 19.4 µM. For the same compound, the GI50 was 16.6 µM (inactive) in the test with HL-60; 35.7 µM (inactive) in the test with HOP-62; 31.6 µM (inactive) in the test on Hs-578T; 41.5 µM (inactive) in the test with IGROV-1; 36.2 µM (inactive) in the test on K562; 26.5 µM (inactive) in the test on KM12. The GI50 with MDA-N was 17.4 µM (inactive); with NCI-H23, 19.3 µM (inactive); with OVCAR-4, 77.3 µM (inactive); in the test with SF-295, 30.1 µM (inactive); in the test with SNB-75, 16.6 µM (inactive); in the test on SW-620, 19.4 µM (inactive). Moreover, the GI50 in the test with UO-31 was > 100 µM (inactive).

Turning to `Brc1ccc2c(c1)C1(c3cc(Br)ccc3-2)c2cc(Br)ccc2-c2ccc(Br)cc21`, the GI50 with ACHN was > 100 µM (inactive); in the test on CCRF-CEM, > 100 µM (inactive); in the test with DMS-114 it was > 100 µM (inactive); in the test with EKVX it was > 100 µM (inactive); in the test on HCT-116, > 100 µM (inactive); with HCT-15, > 100 µM. For the same compound, the GI50 with HL-60, with HOP-62, in the test on IGROV-1, in the test on K562, in the test with KM12 and in the test on NCI-H23 was > 100 µM (inactive) throughout. For the same compound, the GI50 in the test with OVCAR-4, in the test with SF-295, with SW-620 and in the test with UO-31 was > 100 µM (inactive) throughout.

Consider `O=C1c2c(Cl)c(Cl)c(Cl)c(Cl)c2C(=O)N1CCN(c1c(Cl)ssc1=O)c1c(Cl)ssc1=O`, for which the GI50 with ACHN was 18.2 µM (inactive); with CCRF-CEM, 4.36 µM (inactive); with DU-145 it was 19 µM (inactive); in the test on EKVX, 32.1 µM (inactive); with HCT-116, 16.1 µM (inactive); in the test on HCT-15, 19.5 µM. Also, the GI50 with HL-60 is 30.2 µM (inactive); in the test on HOP-62 it was > 100 µM (inactive); in the test on Hs-578T, > 100 µM (inactive); in the test on IGROV-1, 46.2 µM (inactive); in the test with K562, 20.7 µM (inactive); with KM12, 54.8 µM (inactive). For the same compound, the GI50 in the test on MDA-N was 18.5 µM (inactive); in the test on NCI-H23, 40.9 µM (inactive); in the test with OVCAR-4, 18.2 µM (inactive); in the test with SF-295 it was > 100 µM (inactive); with SNB-75, 31.6 µM (inactive); in the test on SW-620 it was 22.5 µM (inactive). Moreover, the GI50 in the test with UO-31 is 18.2 µM (inactive).

`CC1OC(OC2C(CO)OC(O[C@H]3CC[C@@]4(C)C(=CC[C@H]5[C@@H]6C[C@@H]7O[C@](O)(CC[C@H](C)COC8OC(CO)C(O)C(O)C8O)[C@@H](C)[C@@H]7[C@@]6(C)CC[C@@H]54)C3)C(OC3OC(C)C(O)C(O)C3O)C2O)C(O)C(O)C1O` (stereo not given in full): the GI50 in the test with ACHN is 14.3 µM (inactive); in the test on CCRF-CEM it was 1.42 µM (inactive); in the test on DU-145, 2.35 µM (inactive); in the test on EKVX it was 17.1 µM (inactive); in the test on HCT-116, 3.72 µM (inactive); with HCT-15, 2.75 µM. Further, the GI50 was 4.66 µM (inactive) with HL-60; 2.18 µM (inactive) in the test on HOP-62; 2.63 µM (inactive) with Hs-578T; 5.75 µM (inactive) with IGROV-1; 2.8 µM (inactive) with K562; 2.36 µM (inactive) with KM12. For the same compound, the GI50 in the test with MDA-N was 3.4 µM (inactive); in the test with NCI-H23 it was 4.29 µM (inactive); in the test on OVCAR-4, 7.96 µM (inactive); in the test with SF-295, 4.41 µM (inactive); with SNB-75 it was 2.16 µM (inactive); in the test on SW-620, 0.644 µM (active). The GI50 with UO-31 is 3.63 µM (inactive).

For `CC(C)[C@H](NC(=O)[C@H](C(C)C)N(Cc1ccccc1)Cc1ccccc1)C(=O)N(C)[C@H](C(=O)N1CCC[C@H]1C(=O)N(C)[C@H](C)C(=O)NCc1ccc(F)cc1)C(C)C` (Bn2Val-V[NMeV]P[dNMeA]-{NH(4-F-benzyl)}), the GI50 with ACHN is 3.33 µM (inactive); in the test on CCRF-CEM, 3.65 µM (inactive); in the test with DU-145, 4.88 µM (inactive); with EKVX, 3.09 µM (inactive); in the test with HCT-116, 2.97 µM (inactive); in the test with HCT-15, 3.79 µM. The GI50 is 2.54 µM (inactive) with HL-60; 5.47 µM (inactive) in the test on HOP-62; 4.5 µM (inactive) with Hs-578T; 3.19 µM (inactive) in the test on IGROV-1; 3.78 µM (inactive) with K562; 4.24 µM (inactive) with KM12. Besides, the GI50 is 4.29 µM (inactive) in the test with MDA-N; 3.82 µM (inactive) in the test on NCI-H23; 4.28 µM (inactive) in the test with OVCAR-4; 3.44 µM (inactive) in the test with SF-295; 4.07 µM (inactive) in the test with SNB-75; 4.25 µM (inactive) with SW-620. The GI50 in the test on UO-31 was 2.19 µM (inactive).
